Values of other authors in paper PMC7395068, “The evolution of strategies to minimise the risk of human drug-induced liver injury (DILI) in drug discovery and development” (Archives of Toxicology, 2020).
Like-named read-outs stand apart in the source and are kept apart here.

Columns and labels:
human hepatocytes = details: In vitro Assay; ref Xu 2008; cited from earlier work
[1] = ref Chen 2016; cited from earlier work
[2] = cited from earlier work
[3] = tested on: THLE or HepG2 cells, isolated mitochondria, BSEP; details: In vitro Assay; ref Aleo 2019; cited from earlier work
[4] = tested on: primary human hepatocytes, NIH3T3 fibroblasts, BSEP, CYP3A4; details: In vitro Assay; ref Schadt 2015; cited from earlier work

Structure (SMILES): CC(=O)Nc1nnc(S(N)(=O)=O)s1 [acetazolamide]
- Structural based (HCI) (human hepatocytes): -VE

Structure (SMILES): Nc1ncnc2c1ncn2[C@@H]1O[C@H](CO)[C@@H](O)[C@H]1O [adenosine]
- Structural based (HCI) (human hepatocytes): -VE

Structure (SMILES): Nc1ccc(C(=O)O)cc1 [aminobenzoate potassium]
- Structural based (HCI) (human hepatocytes): -VE

Structure (SMILES): COc1cc(NS(C)(=O)=O)ccc1Nc1c2ccccc2nc2ccccc12 [amsacrine]
- Structural based (HCI) (human hepatocytes): +VE

Structure (SMILES): CCOC(=O)[C@H](CCc1ccccc1)N[C@H]1CCc2ccccc2N(CC(=O)O)C1=O [benazepril]
- Structural based (HCI) (human hepatocytes): -VE

Structure (SMILES): CC(NC(C)(C)C)C(=O)c1cccc(Cl)c1 (stereo not drawn) [bupropion]
- Structural based (HCI) (human hepatocytes): -VE

Structure (SMILES): CC(C)(CO)[C@@H](O)C(=O)NCCC(=O)O [calcium pantothenate]
- Structural based (HCI) (human hepatocytes): -VE

Structure (SMILES): COC(=O)CCc1ccc(OCC(O)CNC(C)C)cc1 (stereo not drawn) [esmolol]
- DILI +VE (5-8), DILI -VE (-4) [1]: -VE
- DILI severity category [1]: vNo-DILI-Concern
- In vivo DILI ([2]; ref Aleo 2019): -VE
- Partition Hybrid HRM Score [3]: +VE
- Ro2 Hybrid HRM Score [3]: -VE

Structure (SMILES): Cc1nc(-c2ccc(OCC(C)C)c(C#N)c2)sc1C(=O)O [febuxostat]
- DILI +VE (5-8), DILI -VE (-4) [1]: +VE
- DILI severity category [1]: vMost-DILI-Concern
- In vivo DILI ([2]; ref Aleo 2019): +VE
- Partition Hybrid HRM Score [3]: +VE
- Ro2 Hybrid HRM Score [3]: +VE

Structure (SMILES): O=C(COc1ccc(Cl)cc1)N1CCN(Cc2ccc3c(c2)OCO3)CC1 [fipexide]
- DILI +VE (5-8), DILI -VE (-4) [1]: +VE
- DILI severity category [1]: vMost-DILI-Concern
- In vivo DILI ([2]; ref Aleo 2019): +VE
- Partition Hybrid HRM Score [3]: +VE
- Ro2 Hybrid HRM Score [3]: +VE

Structure (SMILES): Cc1nc2n(c(=O)c1CCN1CCC(c3noc4cc(F)ccc34)CC1)CCCC2O (stereo not drawn) [paliperidone]
- DILI +VE (5-8), DILI -VE (-4) [1]: -VE
- DILI severity category [1]: vNo-DILI-Concern
- In vivo DILI ([2]; ref Aleo 2019): -VE
- Partition Hybrid HRM Score [3]: -VE
- Ro2 Hybrid HRM Score [3]: -VE

Structure (SMILES): Cn1c(=O)c2[nH]c(Br)nc2n(C)c1=O [pamabrom]
- DILI +VE (5-8), DILI -VE (-4) [1]: -VE
- DILI severity category [1]: vNo-DILI-Concern
- In vivo DILI ([2]; ref Aleo 2019): -VE
- Partition Hybrid HRM Score [3]: -VE
- Ro2 Hybrid HRM Score [3]: -VE

Structure (SMILES): CC(C(=O)O)c1ccc(N2CC=CC2)c(Cl)c1 (stereo not drawn) [pirprofen]
- DILI +VE (5-8), DILI -VE (-4) [1]: +VE
- DILI severity category [1]: vMost-DILI-Concern
- In vivo DILI ([2]; […]): +VE
- In vivo DILI ([2]; ref Aleo 2019): +VE
- Partition Hybrid HRM Score [3]: +VE
- Ro2 Hybrid HRM Score [3]: -VE

Structure (SMILES): CNCCCC1c2ccccc2C=Cc2ccccc21 [protriptyline]
- Cellular toxicity (3T3 cells) [4]: -VE
- Combined Assay [4]: +VE
- GSH adduct HML [4]: -VE
- Hepatocyte cellular toxicity [4]: -VE
- MitoTox 3T3 [4]: +VE
- TDI CYP3A4 [4]: -VE
- hBSEP inhibition [4]: -VE
- DILI +VE (5-8), DILI -VE (-4) [1]: -VE
- DILI severity category [1]: vNo-DILI-Concern
- In vivo DILI ([2]; ref Aleo 2019): -VE
- In vivo DILI ([2]; ref Schadt 2015): -VE
- Partition Hybrid HRM Score [3]: -VE
- Ro2 Hybrid HRM Score [3]: -VE

Structure (SMILES): CCOc1ccccc1OCCN[C@H](C)Cc1ccc(OC)c(S(N)(=O)=O)c1 [tamsulosin]
- Cellular toxicity (3T3 cells) [4]: -VE
- Combined Assay [4]: -VE
- GSH adduct HML [4]: -VE
- Hepatocyte cellular toxicity [4]: -VE
- MitoTox 3T3 [4]: -VE
- TDI CYP3A4 [4]: -VE
- hBSEP inhibition [4]: -VE
- DILI +VE (5-8), DILI -VE (-4) [1]: +VE
- DILI severity category [1]: vLess-DILI-Concern
- In vivo DILI ([2]; ref Aleo 2019): +VE
- In vivo DILI ([2]; ref Schadt 2015): -VE
- Partition Hybrid HRM Score [3]: -VE
- Ro2 Hybrid HRM Score [3]: -VE

Structure (SMILES): Cc1nc(C)c2c(n1)N(Cc1ccc(-c3ccccc3-c3nnn[nH]3)cc1)C(=O)CC2 [tasosartan]
- Cellular toxicity (3T3 cells) [4]: -VE
- Combined Assay [4]: +VE
- GSH adduct HML [4]: -VE
- Hepatocyte cellular toxicity [4]: +VE
- MitoTox 3T3 [4]: -VE
- TDI CYP3A4 [4]: -VE
- hBSEP inhibition [4]: +VE
- Partition Hybrid HRM Score [3]: +VE
- Ro2 Hybrid HRM Score [3]: +VE

Structure (SMILES): OC(CCN1CCCCC1)(c1ccccc1)C1CCCCC1 (stereo not drawn) [trihexyphenidyl]
- DILI +VE (5-8), DILI -VE (-4) [1]: -VE
- DILI severity category [1]: vNo-DILI-Concern
- In vivo DILI ([2]; ref Aleo 2019): -VE
- Partition Hybrid HRM Score [3]: -VE
- Ro2 Hybrid HRM Score [3]: -VE
